These results are taken from patent US5994387A, “Pyrrolidinyl methyl indole salt” (Pfizer Inc., priority 1995, dated 1999).

Common to all, as to format: physicochemical
Data set [1] is described as follows: Solid-state (bulk) stability after 9 weeks storage, HPLC. Also on record: key to % Degradation (% peak area @ 50° C.-% peak area @ 4° C.): --: No peaks present at this relative retention time. Particulars: for degraded at 1512 h: solid state, read-out: % Degradation (% peak area @ 50° C.-% peak area @ 4° C.); for Solid state stability in words: qualitative statement, fumarate. The method, then:
Approximately 1 mg of each of the free base, hydrochloride, hydrobromide and fumarate salts of Compound (I) were accurately weighed into small glass vials. These were stored for 9 weeks at each of 4° C./ambient humidity, 40° C./ambient humidity, 40° C./75% RH and 50° C./ambient humidity. The samples were then assayed using the following stability indicating HPLC method. A mobile phase consisting of 0.05 M potassium dihydrogen orthophosphate adjusted to pH2 with phosphoric acid (90%) and acetonitrile (far UV) (10%), was pumped through a "Zorbax SB-CN" 150×4.6 mm column (40° C.) at a flow rate of 1 ml/min with UV detection at 225 nm.
The samples with the exception of the free base were prepared by dissolving them in the mobile phase in a 25 ml volumetric flask. The free base was dissolved in a few drops of methanol before diluting with the mobile phase.
The stability of the samples was quantified by investigating the appearance of new peaks in the chromatograms of stored samples and the increase in peaks present compared to control samples stored at 4° C.

The nature of data set [2]: Saturated solubility of free base and fumarate salt in water (HPLC). Particulars: for solubility at 16 h: saturated solubility in water (MilliQ), 16 hours at room temperature; for Solubility in words: water, qualitative statement, fumarate. The method, then: For both the free base and fumarate salt, approximately 50 mg of solid bulk material was accurately weighed into a 1.5 mL plastic "Eppendorf" tube (Sigma). 0.3 mL of water (MilliQ) was then added to the tubes. The tubes were then vortex mixed at 1,300 rpm ("LKB") for 16 hours at room temperature. The supematant was separated from undissolved material by centrifugation at 13,000 rpm for 20 minutes ("Heraeus Biofuge 13"), then diluted and assayed for Compound (I) by HPLC. This assay used a mobile phase of acetonitrile (20%), water (80%) and trifluoroacetic acid (0.1%) and a 150×4.2 mm "Zorbax SB CN" column at 40° C. with U.V. detection at 220 nm.

A short description of data set [3]: Solubility in the 90% PEG 400 / 10% water formulation (observation). The conditions noted are these: 1 mg/mL in 90% PEG 400 and 10% water. An excerpt:
(§1) Soft gelatin capsule formulations are an attractive delivery system for Compound (I) as they improve in vivo dissolution and content uniformity on manufacture. The compound (I) can be formulated as a liquid fill soft gelatin capsule. However, oxidative degradation often limits the shelf life of such formulations. PEG 400 is representative of a typical liquid fill diluent used for such a purpose. The following study was designed to determine whether oxidative degradation occurs with Compound (I) in such a formulation, and whether the fumarate salt provides protection against oxidative degradation. 1 mg/mL solutions of Compound (I) as the free base, Compound (I) as the hydrochloride salt and Compound (I) as the fumarate salt were prepared in 90% PEG 400 (BDH) and 10% water (Milli-Q). 10% water was added to the formulations to mimic the ingress of water from the soft gelatin capsule shell. […] However, for ease of solution preparation, the hydrochloride salt was used instead.

Data set [4] is described as follows: Hygroscopicity: moisture uptake in moisture microbalance. The conditions noted are these: for Hygroscopicity at 30° C. and 90% RH: moisture uptake; for Hygroscopicity in words: qualitative statement, fumarate. The method, then:
Approximately 10 mg of each of the free base and fumarate salts of Compound (I) were exposed to 8 different relative humidities (RHs) between 0 and 94% at 30° C. in the Surface Measurement Systems Ltd moisture microbalance. The samples were allowed to reach equilibrium at each of these RHs and the change in weight from the initial value when the sample was first placed in the balance was calculated. The data was used to construct the moisture sorption isotherms for the materials. The hygroscopicity of the materials was compared by calculating the moisture uptake at 90%RH, which was as follows: […]

Data set [5] in a line: Oxidative stability in 90% PEG 400 with and without hydrogen peroxide. The conditions noted are these: for Stability to oxidative degradation, in words: qualitative statement, fumarate.
Description: as §1
Hydrogen peroxide (BDH) to a final concentration of 0.3% w/w was added to the formulations to provide an oxidative stress. A control formulation without hydrogen peroxide was also used in the study. 1 mL of each formulation was sealed into 2 mL HPLC vials ("Cromacol") and placed in a thermostated oven at 40° C. Samples were taken at 1.5 and 3 days and stored frozen (-20° C.) prior to assay. The samples were diluted and analysed using the stability indicating HPLC assay as described above. Degradation was expressed as % Compound (I) remaining.

Where [6] appears, read: relative retention time 0.59, 9 weeks at 50° C.
The mark [7] stands for this setting: relative retention time 0.77, 9 weeks at 50° C.
[8] abbreviates: relative retention time 0.85, 9 weeks at 50° C.
Setting [9] is: relative retention time 0.40, 9 weeks at 50° C.
[10] abbreviates: relative retention time 0.60, 9 weeks at 50° C.
The mark [11] stands for this setting: relative retention time 0.91, 9 weeks at 50° C.
[12] abbreviates: relative retention time 1.66, 9 weeks at 50° C.
Setting [13] is: relative retention time 1.93, 9 weeks at 50° C.

Structures are written as SMILES. Where two headings read alike, the source gives them in different places.

A word on the solubility: it is the dissolved amount per volume that the medium holds. Take `CNS(=O)(=O)Cc1ccc2[nH]cc(C[C@H]3CCCN3C)c2c1` [Free base, (R)-5-(methylaminosulphonylmethyl)-3-(N-methylpyrrolidin-2-ylmethyl)-1H-indole]: the “New drug related peaks” value in data set [1] (9 weeks at 50° C.) is 4 new drug related peaks. Moreover, the “Solid-state degradation in words” value in data set [1] (9 weeks at 50° C.) is on record as “measurable degradation”. Besides, the “total increase in % peak area” value in data set [1] (all peaks, 9 weeks at 50° C. vs 4° C., 90720 min) was determined as 0.32%. For the same compound, the “% Degradation (% peak area @ 50° C.-% peak area @ 4° C.)” value (“% Degradation” for short) in data set [1] (setting [6]), in data set [1] (setting [7]) and in data set [1] (setting [8]) was “--” in each case. In addition, the degraded at 1512 h in data set [1] (setting [9]) was found to be 0.05%; in data set [1] (setting [10]) it was 0.01%; in data set [1] (setting [11]), 0.02%; in data set [1] (setting [12]), 0.17%; in data set [1] (setting [13]) it was 0.03%. For the same compound, the solubility at 16 h in data set [2] is 0.12 mg/mL. Moreover, the “Solubility in the PEG 400 formulation” value in data set [3] is listed as “not very soluble”. The “Hygroscopicity at 30° C. and 90% RH” value in data set [4] is given as 0.2 % w/w.
On to `CNS(=O)(=O)Cc1ccc2[nH]cc(C[C@H]3CCCN3C)c2c1.O=C(O)/C=C/C(=O)O` [Fumarate salt, (R)-5-(methylaminosulphonylmethyl)-3-(N-methylpyrrolidin-2-ylmethyl)-1H-indole fumarate], for which the “Degradation rate compared with the hydrochloride” value in data set [5] (90% PEG 400, 40° C., both time points (1.5 and 3 days)) was “significantly lower (analysis of variance p<0.001) than the hydrochloride at both time points”. Moreover, the entries for the “Stability to oxidative degradation, in words” value in data set [5] and in data set [5] (listed as fumarate salt of (I)) were “significant protection against degradation in the formulation” and “unexpectedly improved stability to oxidative degradation”, respectively. Besides, in data set [1] (9 weeks at 50° C.), the “Solid-state degradation in words” value is “had not degraded at all after 9 weeks 50 °C”. Also, the “Solid state stability in words” value is “most stable in the solid state” in data set [1]; “excellent solubility and solid state stability” in data set [1] (listed as fumarate salt of (I)). Besides, the “% Degradation” value in data set [1] (setting [9]), in data set [1] (setting [10]), in data set [1] (setting [7]), in data set [1] (setting [8]), in data set [1] (setting [11]) and in data set [1] (setting [12]) was “--” throughout. In addition, the “% Degradation” value in data set [1] (setting [13]) was “--”. Also, the degraded at 1512 h in data set [1] (setting [6]) came to 0%. Also, in data set [2], the solubility at 16 h amounted to 67.5 mg/mL. Moreover, the Solubility in words entry in data set [2] is listed as “Increased solubility”; in data set [2] (listed as fumarate salt of (I)), “excellent solubility”. Also, the “Hygroscopicity at 30° C. and 90% RH” value in data set [4] was found to be 0.2 % w/w. Besides, the figures for the Hygroscopicity in words result in data set [4] and in data set [4] (listed as fumarate salt of (I)) were “not accompanied by increased hygroscopicity” and “non-hygroscopic”, respectively.
